Reference: patent publication US12304912B2, “Fused bicyclic RAF inhibitors and methods for use thereof” (Jazz Pharmaceuticals Ireland Limited, priority 2020, dated 2025)

What was measured:
[1] = Solubility (Sol), medium not stated; type: physicochemical; details: cells not marked (FESSIF)
[2] = system: BRAF monomers in A375 cells; experiment: A375 AlphaLISA SureFire pERK1/2 cellular assay (monomer); type: cell-based; details: Homo sapiens, A-375; A375 cells, 1 hr; read-out: pERK A375 (1 hr) pIC50 (converted)
Procedure, shortened: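 BRAF^V600E A375 melanoma cells seeded at 30,000/well in DMEM with 10% FBS, dosed without medium exchange in a 10-point series from 10 μM at 1/2-log steps, 1 h at 37 °C. Phospho-ERK1/2 (Thr202/Tyr204) measured in lysates by AlphaLISA SureFire; absolute IC50 relative to DMSO control.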

[3] = Plasma protein binding assay, mouse plasma (mPPB); type: in vitro ADME; details: 5 μM, equilibrium dialysis 4 hours 37° C.
Procedure, shortened: (§1)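 Equilibrium dialysis of 5 μM compound in previously frozen human or mouse plasma against phosphate buffer, 4 h at 37 °C. Both chambers quantified by LC-MS/MS; % free = (1−((PC−PF)/PC))×100.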

[4] = system: RAF dimers in HCT-116 cells; experiment: HCT-116 AlphaLISA SureFire pERK1/2 cellular assay (dimer); type: cell-based; details: Homo sapiens, HCT-116; HCT116 cells pre-dosed with 1 μM Encorafenib, 1 hr; read-out: pERK HCT116 dimer (1 hr) pIC50 (converted)
Procedure, shortened: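 HCT-116 (KRAS G13D) cells, 30,000/well, pretreated 1 h with 1 μM Encorafenib to induce RAF dimers, washed, then dosed 1 h at 37° C with compound (10-point, top 10 μM, 1/2 log steps) in growth medium. pERK1/2 (T202/Y204) measured by AlphaLISA SureFire; absolute IC50 versus DMSO control.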

[5] = Microsomal stability assay, mouse liver microsomes (MLM); type: in vitro ADME; details: 0.5 mg/mL protein, 1 μM substrate
Procedure, shortened: (§2)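 Substrate depletion: 1 μM compound incubated at 37° C. with cryopreserved mouse or human liver microsomes at 0.5 mg·mL^−1 protein. Timed aliquots quenched in ice-cold organic solvent and measured by LC-MS/MS; t1/2 and CLint derived from the slope of ln % remaining versus time.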

[6] = Microsomal stability assay, human liver microsomes (HLM); type: in vitro ADME; details: 0.5 mg/mL protein, 1 μM substrate
Procedure, shortened: as §2

[7] = Plasma protein binding assay, human plasma (hPPB); type: in vitro ADME; details: 5 μM, equilibrium dialysis 4 hours 37° C.
Procedure, shortened: as §1

Structure (SMILES) | Sol [1] | IC50 [2] | mPPB (% free) [3] | IC50 [4] | microsomal CLint at 1 μM [5] | microsomal CLint at 1 μM [6] | hPPB (% free) [7]
O=C1CCc2c(Oc3ccc4c(c3)CC(c3nc5c(C(F)(F)F)cccc5[nH]3)CO4)ccnc2N1 (centres unmarked) [Compound 27] | <1.2 mg/L | 389 nM | <0.1 % free | 380 nM | 148 µL/min/mg | 102 µL/min/mg | <0.1 % free
Cc1cc(C(F)(F)F)cc2nc(C3COc4ccc(Oc5ccnc6c5CCC(=O)N6)cc4C3)[nH]c12 (centres unmarked) [Compound 31] | <1.2 mg/L | 126 nM | 0.2 % free | 871 nM | 26 µL/min/mg | 34.6 µL/min/mg | <0.1 % free
CN(C)Cc1cc(C(F)(F)F)cc2nc(C3COc4ccc(Oc5ccnc6c5CCC(=O)N6)cc4C3)[nH]c12 (centres unmarked) [Compound 33] | 7 mg/L | 380 nM | 3.1 % free | 661 nM | 37 µL/min/mg | 77.3 µL/min/mg | 2 % free
O=C1CCc2c(Oc3ccc4c(c3)CN(C(=O)NCc3ccccc3)CC4)ccnc2N1 [Compound 48] | <1.1 mg/L | 9120 nM | 3 % free | 7240 nM | 38.4 µL/min/mg | 40.5 µL/min/mg | 2 % free
O=C1CCc2c(Oc3ccc4c(c3)CN(C(=O)Nc3ccccc3C(F)(F)F)CC4)ccnc2N1 [Compound 49] | <1.2 mg/L | 7760 nM | 2.5 % free | 8910 nM | 83.6 µL/min/mg | 82.2 µL/min/mg | 1.9 % free
